In patent US5115099A, “Substrates for determination of enzyme activity and intermediates for synthesis of the substrates as well as process for producing the intermediates” (Nitto Boseki Co., Ltd., priority 1988, dated 1992):
Counter-ions that a name gives are not always drawn. Where a SMILES comes first, the peptide text is derived from it.

What was measured:
[1] = target: T1, Trypsin (Bos taurus, UniProt P00760); experiment: Relative reactivity of substrate with trypsin (absorbancy at 405 nm); assay type: biochemical, Bovine; settings: substrate 10 mM/l; trypsin 0.07 U/ml; Tris 50 mmol, NaCl 150 mmol, pH 8.1; 37° C. 10 minutes; absorbancy 405 nm; relative to S-2222 10 mM = 1.0
T1 construct: purchased Boehringer
T1 sequence (P00760 24-246): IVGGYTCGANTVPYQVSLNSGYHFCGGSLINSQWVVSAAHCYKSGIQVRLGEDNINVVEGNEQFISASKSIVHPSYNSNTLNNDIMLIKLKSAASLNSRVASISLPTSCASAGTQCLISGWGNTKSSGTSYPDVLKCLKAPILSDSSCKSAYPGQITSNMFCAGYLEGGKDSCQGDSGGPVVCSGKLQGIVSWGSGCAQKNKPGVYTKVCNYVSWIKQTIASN
Experimental: (§1) Specificity of the synthesized new substrate was examined by reacting with each enzyme. Details of reagents used are as describved below.
(§2) (2) Buffer: Kind of buffer, NaCl and its concentration and pH (25° C.) were set as shown below depending upon enzyme. […]
(§3) (3) Enzyme used: Enzyme used and its source, etc. are as follows. […]
(§4) (4) Terminate solution: 10% acetic acid aqueous solution.
(§5) Buffer, 0.5 ml and 0.1 ml of substrate solution are charged in a silicone-treated hard glass test tube or plastic test tube. The mixture is previously heated for 10 minutes in a thermostat at 37° C. Then, 0.05 ml of enzyme reagent is added to the mixture to perform enzyme reaction at 37° C. for 10 minutes.
Accurately 10 minutes after, 2.5 ml of the terminate solution is added to stop the enzyme reaction. Then the reaction mixture is allowed to stand at 37° C for 10 minutes and its absorbancy is measured at 405 nm.
(§6) Values in the tables indicate relative values when absorbancy of substrate S-2222, 10 mM, was made 1.0.

[2] = target: T2, α2 -macroglobulin-trypsin complex (α2 M-Try) (Bos taurus, UniProt P00760); experiment: Relative reactivity of substrate with α2 M-Try (absorbancy at 405 nm); assay type: biochemical, Bovine; settings: substrate 10 mM/l; α2 M-Try 1/20 dilution; Bistrispropane 100 mmol, NaCl 150 mmol, pH 8.7; 37° C. 10 minutes; absorbancy 405 nm; relative to S-2222 10 mM = 1.0
T2 construct: purchased SIGMA (Try); Boehringer (α2 M)
T2 sequence (P00760 24-246): T1 sequence (P00760 24-246)
T2 sequence (Q7SIH1 24-1510 partner): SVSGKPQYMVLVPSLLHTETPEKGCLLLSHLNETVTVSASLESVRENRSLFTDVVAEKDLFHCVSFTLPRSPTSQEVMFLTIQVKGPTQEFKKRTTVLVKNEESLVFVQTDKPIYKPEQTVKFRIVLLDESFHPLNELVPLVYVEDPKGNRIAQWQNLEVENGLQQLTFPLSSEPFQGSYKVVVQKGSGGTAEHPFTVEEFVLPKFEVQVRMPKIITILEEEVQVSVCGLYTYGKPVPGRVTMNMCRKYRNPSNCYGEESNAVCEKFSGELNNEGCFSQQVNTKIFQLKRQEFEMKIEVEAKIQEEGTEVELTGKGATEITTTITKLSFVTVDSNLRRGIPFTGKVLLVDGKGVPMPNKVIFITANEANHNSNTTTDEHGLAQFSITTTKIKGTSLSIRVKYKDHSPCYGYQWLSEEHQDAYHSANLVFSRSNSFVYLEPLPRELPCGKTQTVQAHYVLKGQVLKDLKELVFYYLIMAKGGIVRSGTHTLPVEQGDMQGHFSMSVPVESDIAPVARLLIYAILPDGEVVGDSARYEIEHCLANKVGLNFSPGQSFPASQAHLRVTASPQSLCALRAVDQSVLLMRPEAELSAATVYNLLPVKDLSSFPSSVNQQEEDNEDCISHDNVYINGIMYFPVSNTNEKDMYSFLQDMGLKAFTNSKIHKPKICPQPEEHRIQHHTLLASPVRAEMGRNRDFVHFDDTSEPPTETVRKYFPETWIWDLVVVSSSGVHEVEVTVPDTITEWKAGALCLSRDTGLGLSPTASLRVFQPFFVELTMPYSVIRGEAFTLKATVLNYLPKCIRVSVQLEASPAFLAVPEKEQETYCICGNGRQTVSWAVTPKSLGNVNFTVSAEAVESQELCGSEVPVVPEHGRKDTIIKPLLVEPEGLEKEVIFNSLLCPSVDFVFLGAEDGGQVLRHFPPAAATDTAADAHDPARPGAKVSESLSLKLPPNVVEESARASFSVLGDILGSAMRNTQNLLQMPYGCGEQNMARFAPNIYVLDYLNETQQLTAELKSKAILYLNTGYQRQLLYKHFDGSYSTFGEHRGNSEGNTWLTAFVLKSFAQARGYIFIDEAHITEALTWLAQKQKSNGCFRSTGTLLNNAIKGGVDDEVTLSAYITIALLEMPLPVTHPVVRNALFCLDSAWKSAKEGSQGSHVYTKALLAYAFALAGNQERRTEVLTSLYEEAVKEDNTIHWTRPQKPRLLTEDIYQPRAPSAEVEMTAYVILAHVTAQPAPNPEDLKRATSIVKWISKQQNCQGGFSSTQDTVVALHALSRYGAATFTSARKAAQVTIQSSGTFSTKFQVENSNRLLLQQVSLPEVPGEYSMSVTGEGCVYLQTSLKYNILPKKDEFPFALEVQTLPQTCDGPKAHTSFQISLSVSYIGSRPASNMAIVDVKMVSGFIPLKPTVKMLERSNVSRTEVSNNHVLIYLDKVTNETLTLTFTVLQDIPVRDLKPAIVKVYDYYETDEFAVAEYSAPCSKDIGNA
Experimental: as §1, §2, §3, §4
Buffer, 0.5 ml and 0.1 ml of substrate solution are charged in a silicone-treated hard glass test tube or plastic test tube. The mixture is previously heated for 5 minutes in a thermostat at 37° C.
Then, 0.05 ml of enzyme reagent is added to the mixture to perform enzyme reaction at 37° C. for 10 minutes.
Accurately 10 minutes after, 1.0 ml of the terminate solution is added to stop the enzyme reaction. Then the reaction mixture is allowed to stand at 37° C. for 10 minutes and its absorbancy is measured at 405 nm.
as §6

[3] = system: Normal serum; experiment: Relative reactivity of substrate with normal serum (absorbancy at 405 nm); assay type: biochemical; settings: substrate 10 mM/l; undiluted human normal serum; Tris 50 mmol, NaCl 150 mmol, pH 8.5; 37° C. 5 minutes; absorbancy 405 nm; relative to S-2222 10 mM = 1.0
Experimental: as §1, §2, §3
Normal Human -- -- undiluted
as §4
as §5, with “5” for “10”, “0.1” for “0.05”, “normal serum” for “enzyme reagent”
Accurately 5 minutes after, 2.0 ml of the terminate solution is added to stop the enzyme reaction. Then the reaction mixture is allowed to stand at 37° C. for 10 minutes and its absorbancy is measured at 405 nm.
as §6

[4] = Solubility of the substrates in water; assay type: physicochemical
From the text: (B) Solubility of the substrates of this invention and known substrates in water were examined.

Relative Reactivity to Enzyme (relative value of absorbance) Try [1]	Relative Reactivity to Enzyme (relative value of absorbance) α2 M-Try [2]	Relative Reactivity to Enzyme (relative value of absorbance) Normal Serum [3]	Compound	Solubility [4]
0.74	1.46	0.20	CCCN(CCC)C(=O)CC[C@@H](N)C(=O)NCC(=O)N[C@@H](CCCN=C(N)N)C(=O)Nc1ccc([N+](=O)[O-])cc1.Cl.Cl [Substrate No. 21]	
0.39	0.68	5.50	Cl.Cl.NC(N)=NCCC[C@H](NC(=O)[C@@H]1CCCCN1C(=O)[C@H](N)Cc1ccccc1)C(=O)Nc1ccc([N+](=O)[O-])cc1 [S-2238, HDPhePipArgpNA.2HCl, reference compound]	
1.0	1.0	1.0	Bz-Ile-Glu(OR)-Gly-Arg-pNA.HCl; R=H and CH3 [S-2222, reference compound]	6 mM/l
0.84	1.19	0.03	H-D-Glu(OCH.(C2 H5)2)-Gly-Arg-ANBS.2HCl [Substrate No. 1]	

Compound	Relative Reactivity to Enzyme (relative value of absorbance) Try [1]	Relative Reactivity to Enzyme (relative value of absorbance) α2 M-Try [2]	Relative Reactivity to Enzyme (relative value of absorbance) Normal Serum [3]	Solubility [4]
Cl.Cl.NC(N)=NCCC[C@H](NC(=O)CNC(=O)[C@H](N)CCC(=O)OCc1ccccc1)C(=O)Nc1ccc([N+](=O)[O-])cc1 [Substrate No. 2] (HELM PEPTIDE1{[dE].G.R.[O=[N+]([O-])c1ccc(N[*:1])cc1]}|CHEM1{[c1ccc(CO[*:1])cc1]}$PEPTIDE1,CHEM1,1:R3-1:R1$$$V2.0)	0.71	1.01	0.12	
CC(C)[C@H](NC(=O)OCc1ccccc1)C(=O)NCC(=O)N[C@@H](CCCNC(=N)N)C(=O)Nc1ccc([N+](=O)[O-])cc1 [CHR-TRY, Z-Val-Gly-Arg-pNA-HCl, reference compound] (HELM PEPTIDE1{[O=C(OCc1ccccc1)[*:2]].V.G.R.[O=[N+]([O-])c1ccc(N[*:1])cc1]}$$$$V2.0)	0.50	0.73	1.70	insoluble
CC(C)OC(=O)CC[C@@H](N)C(=O)NCC(=O)N[C@@H](CCCN=C(N)N)C(=O)Nc1ccc([N+](=O)[O-])cc1.Cl.Cl [Substrate No. 3] (HELM PEPTIDE1{[dE].G.R.[O=[N+]([O-])c1ccc(N[*:1])cc1]}|CHEM1{[CC(C)O[*:1]]}$PEPTIDE1,CHEM1,1:R3-1:R1$$$V2.0)	0.67	1.20	0.41	
